Laboratory results reported in patent US20230407243A1, “GENETIC PLATFORM TO INVESTIGATE THE FUNCTIONS OF BACTERIAL DRUG EFFLUX PUMPS” (priority 2022, published 2023).
Values joined by “and” are separate entries in the source; they are usually repeats but may differ in a detail not shown here. Equal entries are not always repeated. Where two headings read alike, the source gives them in different places.

Key:
Type in all cases: cell-based, Escherichia coli
[1] = tested on: wild-type E. coli K-12 str. BW25113; test: microbe, parasite or virus in culture; conditions: technical duplicate; for MIC: Escherichia coli, BW25113
Procedure: (§1) Single colonies were used to inoculate 3 mL of LB followed by incubation at 37° C. for 18 h with aeration at 220 rpm. The bacterial cells were harvested by centrifugation and resuspended in phosphate buffered saline (PBS) ([pH 7.4], 137 mM NaCl (Bioshop), 2.7 mM KCl (Bioshop), 10 mM Na2PO4 (Bioshop) and 1.8 mM K2PO4) to an OD600 nm˜1.0, followed by 1/2000 dilution into MHB II.
(§2) To a 384-well microtiter plate (Corning, untreated polystyrene), 500 nL of compound was dispensed, in duplicate, and serially titrated 2-fold using an Echo 550 acoustic liquid dispenser (Labcyte Inc.). […] As a solvent control, 500 nL of DMSO was applied to wells that contained no compound. Using a multichannel pipette, 50 μL of the prepared bacterial inoculum was applied to each well. To enable background correction post-incubation, the OD600 nm was measured (Biotek Synergy Neo2 microplate reader) prior to incubation. The plates were incubated at 37° C. with aeration at 900 rpm for 18 h. The plates were equilibrated to room temperature and the OD600 nm measured using a BioTek Synergy Neo2 microplate reader. Data was analyzed in both Prism (GraphPad, Version 9.2.0) and Microsoft Excel (Version 16.53). Raw data were input into Microsoft Excel and the pre-incubation OD600 nm measurements were subtracted from the post-incubation OD600 nm measurements. These corrected measurements were input into Prism 9 as a grouped analysis. […] All other MIC values were adjusted accordingly and visualized using the single-color scale grouped heat map function. Identification of compound chemical properties was achieved using DataWarrior (Version 5.5.0). Using PubChem, the SMILES chemical notation for each compound was obtained and compiled in Microsoft Excel. The resulting spreadsheet was input into DataWarrior and properties were calculated from the compound chemical structures.

[2] = tested on: E. coli EKO-35; test: microbe, parasite or virus in culture; conditions: for Fold change of MICs: EKO-35 compared to EKO-35 (reference); for MIC: Escherichia coli, EKO35; for MIC / Minimum inhibitory concentration (MIC), EKO-35 / Minimum Inhibitory Concentration, EKO-35: technical duplicate
Procedure: as §1, §2

[3] = tested on: E. coli ΔtolC; test: microbe, parasite or virus in culture; conditions: for MIC: Escherichia coli, 18 h, read-out: Minimum Inhibitory Concentration, ΔtolC; for Minimum inhibitory concentration (MIC), ΔtolC: Table 10, without pore; for Minimum inhibitory concentration (MIC), ΔtolC / Minimum Inhibitory Concentration, ΔtolC: technical duplicate; for Minimum Inhibitory Concentration, ΔtolC: Table 13A, non-porinated
Procedure: as §1, §2

[4] = tested on: EKO-35 araC::mdtBC Pore; test: MIC susceptibility profiling, porinated efflux platform; conditions: for Fold changes of MICs: EKO-35 araC::mdtBC Pore compared to EKO-35-Pore; for MIC: Escherichia coli, read-out: Minimum inhibitory concentration; for MIC / Minimum inhibitory concentration: EKO-35 araC::mdtBC Pore, technical duplicate
How it was run: (§3)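 E. coli strains carrying a genomically integrated constitutive fhuA ΔC/Δ4L pore were grown 18 h in LB at 37 °C, then diluted 1/2000 in MHB II from OD600 ~1.0. Compounds were tested in duplicate, 2-fold serial titration, for 18 h at 37 °C with shaking. MIC came from OD600 with the pre-incubation background subtracted.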

[5] = tested on: EKO-35 araC::mexCD Pore; test: as above; conditions: for Fold changes of MICs: EKO-35 araC::mexCD Pore compared to EKO-35-Pore; for MIC: Escherichia coli, read-out: Minimum inhibitory concentration; for MIC / Minimum inhibitory concentration: EKO-35 araC::mexCD Pore, technical duplicate
How it was run: as §3

[6] = tested on: EKO-35 araC::emrKY Pore; test: as above; conditions: for Fold changes of MICs: EKO-35 araC::emrKY Pore compared to EKO-35-Pore; for MIC: Escherichia coli, read-out: Minimum inhibitory concentration; for MIC / Minimum inhibitory concentration: EKO-35 araC::emrKY Pore, technical duplicate
How it was run: as §3

[7] = tested on: EKO-35 araC::macAB Pore; test: as above; conditions: for Fold changes of MICs: EKO-35 araC::macAB Pore compared to EKO-35-Pore; for MIC: Escherichia coli, read-out: Minimum inhibitory concentration; for MIC / Minimum inhibitory concentration: EKO-35 araC::macAB Pore, technical duplicate
How it was run: as §3

[8] = tested on: EKO-35 araC::mdtEF Pore; test: as above; conditions: for Fold changes of MICs: EKO-35 araC::mdtEF Pore compared to EKO-35-Pore; for MIC: Escherichia coli, read-out: Minimum inhibitory concentration, EKO-35 araC::mdtEF Pore; for MIC / Minimum inhibitory concentration, EKO-35 araC::mdtEF Pore: Table 14A, porinated, technical duplicate
How it was run: as §3

[9] = tested on: EKO-35 strains producing different efflux pumps (EKO-35 araC::X); test: Checkerboard synergy (FICI) of PAβN or NMP with antibiotics; conditions: for PABN MICa Alone: PAβN alone, one value per checkerboard
Procedure: Synergy measurement using checkerboard analysis was performed in 96-well microtiter plates using the microdilution broth method, according to CLSI guidelines (Patel J. B., 2015). The cell inocula were prepared using the colony resuspension method. The minimum inhibitory concentrations (MICs) were defined as the lowest concentration that provided no growth, as determined by measurement of the OD600nm using a Synergy H1 microplate reader (BioTek). Susceptibility testing was performed in MHB II with a final volume of 100 μL. PAI3N (Bachem Americas) was solubilized in MHB II. […] Solvent controls were included in each plate.
The Fractional Inhibitory Concentration Index (FICI) was used to assess the synergy of PAI3N in combination with different antibiotics. The FICI represents the ΣFIC of each drug. The FICI for each drug was calculated using the following formula: FICI=FICA+FICB=(CA/MICA)+(CB/MICB). Where MICA and MICB are the MICs of drugs A (PAI3N/NMP) and B (antibiotic) alone, and CA and CB are the MICs of the drugs in combination. The effects of PAβN or NMP in combination with antibiotics were classified as: synergistic (FICI<0.5), additive (FICI>0.5-1.0), indifferent (FICI>1.0-2.0), and antagonistic (FICI>2.0). Fold increases in resistance provided by efflux pumps were calculated by dividing the MIC values of strains expressing efflux pumps by the MIC value of EKO-35.

[10] = Table 10, without pore, read-out: Minimum inhibitory concentration (MIC), K-12
[11] = Table 13A, non-porinated, read-out: Minimum Inhibitory Concentration, K-12
[12] = Table 10, without pore, read-out: Minimum inhibitory concentration (MIC), EKO-35
[13] = Table 13A, non-porinated, read-out: Minimum Inhibitory Concentration, EKO-35

CN(C)c1ccc(O)c2c1C[C@H]1C[C@H]3[C@H](N(C)C)C(O)=C(C(N)=O)C(=O)[C@@]3(O)C(O)=C1C2=O [minocycline]
2 fold: Fold changes of MICs [8]
0.781 µg/mL: MIC [1, 10] | MIC [1, 11]
0.098 µg/mL: MIC [3] | Minimum inhibitory concentration (MIC), ΔtolC [3] | MIC [8]
0.049 µg/mL: MIC [2, 12] | MIC [2, 13] | MIC [4] | MIC [5] | MIC [6] | MIC [7]
1 fold: Fold change of MICs [2] | Fold changes of MICs [4] | Fold changes of MICs [5] | Fold changes of MICs [6] | Fold changes of MICs [7]

O=C(Nc1ccc(C(F)(F)F)cc1)Nc1ccc(C(F)(F)F)cc1 [compound 7]
0.313 µg/mL: Minimum inhibitory concentration (MIC), ΔtolC [3] | Minimum Inhibitory Concentration, ΔtolC [3]
1 fold: Fold change of MICs [2] | Fold changes of MICs [4] | Fold changes of MICs [5] | Fold changes of MICs [6] | Fold changes of MICs [7] | Fold changes of MICs [8]
320 µg/mL: Minimum inhibitory concentration (MIC), K-12 ([1]; Table 10, without pore) | Minimum Inhibitory Concentration, K-12 ([1]; Table 13A, non-porinated) | Minimum inhibitory concentration (MIC), EKO-35 ([2]; Table 10, without pore) | Minimum Inhibitory Concentration, EKO-35 ([2]; Table 13A, non-porinated) | Minimum inhibitory concentration [4] | Minimum inhibitory concentration [5] | Minimum inhibitory concentration [6] | Minimum inhibitory concentration [7] | Minimum inhibitory concentration, EKO-35 araC::mdtEF Pore [8]

C[C@@H]1O[C@@H]1P(=O)(O)O [fosfomycin]
1 fold: Fold change of MICs [2] | Fold changes of MICs [4] | Fold changes of MICs [6] | Fold changes of MICs [7] | Fold changes of MICs [8]
3.12 µg/mL: MIC [2, 12] | MIC [2, 13]
2 fold: Fold changes of MICs [5]
1.56 µg/mL: MIC [5]
6.25 µg/mL: MIC [1, 10] | MIC [1, 11] | MIC [3] | Minimum inhibitory concentration (MIC), ΔtolC [3]
0.781 µg/mL: MIC [4] | MIC [6] | MIC [7] | MIC [8]

phenylalanine-arginine-β-naphthylamide [PAβN]
4 µg/mL: PABN MICa Combined ([9]; EKO-35 acrD, with Oxacillin)
8 µg/mL: PABN MICa Combined ([9]; EKO-35 acrD, with Fusidic Acid) | PABN MICa Combined ([9]; EKO-35 acrEF, with Fusidic Acid) | PABN MICa Combined ([9]; EKO-35 mdtEF, with Fusidic Acid) | PABN MICa Combined ([9]; EKO-35 mexCD, with Ciprofloxacin) | PABN MICa Combined ([9]; EKO-35 mexCD, with Erythromycin)
128 µg/mL: PABN MICa Alone ([9]; EKO-35 acrD, listed as PABN)
32 µg/mL and 64 µg/mL: PABN MICa Alone ([9]; EKO-35 acrEF, listed as PABN)
64 µg/mL: PABN MICa Alone ([9]; EKO-35 acrD) | PABN MICa Alone ([9]; EKO-35 mdtEF) | PABN MICa Alone ([9]; EKO-35 mexCD)
16 µg/mL: PABN MICa Combined ([9]; EKO35 araC::acrB, with Linezolid) | PABN MICa Combined ([9]; EKO-35 acrB, with Erythromycin) | PABN MICa Combined ([9]; EKO-35 acrB, with Oxacillin) | PABN MICa Combined ([9]; EKO-35 acrD, with Novobiocin) | PABN MICa Combined ([9]; EKO-35 acrEF, with Ciprofloxacin) | PABN MICa Combined ([9]; EKO-35 acrEF, with Erythromycin) | PABN MICa Combined ([9]; EKO-35 acrEF, with Oxacillin) | PABN MICa Combined ([9]; EKO-35 mdtEF, with Erythromycin)
32 µg/mL: PABN MICa Combined ([9]; EKO-35 acrB, with Fusidic Acid) | PABN MICa Combined ([9]; EKO-35 acrB, with Novobiocin)

O=C(Nc1ccccc1)Nc1ccc(Br)c(C(F)(F)F)c1 [compound 6]
1 fold: Fold change of MICs [2] | Fold changes of MICs [4] | Fold changes of MICs [5] | Fold changes of MICs [6] | Fold changes of MICs [7] | Fold changes of MICs [8]
320 µg/mL: Minimum inhibitory concentration (MIC), K-12 ([1]; Table 10, without pore) | Minimum Inhibitory Concentration, K-12 ([1]; Table 13A, non-porinated) | Minimum inhibitory concentration (MIC), EKO-35 ([2]; Table 10, without pore) | Minimum Inhibitory Concentration, EKO-35 ([2]; Table 13A, non-porinated) | Minimum inhibitory concentration [4] | Minimum inhibitory concentration [5] | Minimum inhibitory concentration [6] | Minimum inhibitory concentration [7] | Minimum inhibitory concentration, EKO-35 araC::mdtEF Pore [8]
0.625 µg/mL: Minimum inhibitory concentration (MIC), ΔtolC [3] | Minimum Inhibitory Concentration, ΔtolC [3]

O=[N+]([O-])c1ccc2c(c1)C(=NO)c1cc([N+](=O)[O-])ccc1-2 [compound 11]
64 fold: Fold changes of MICs [8]
0.156 µg/mL: Minimum inhibitory concentration (MIC), ΔtolC [3] | Minimum Inhibitory Concentration, ΔtolC [3]
susceptible: susceptibility of EKO-35 to the compound ([2]; synthetic efflux substrates of FIG. 12)
1 fold: Fold change of MICs [2] | Fold changes of MICs [4] | Fold changes of MICs [6] | Fold changes of MICs [7]
5 µg/mL: Minimum inhibitory concentration, EKO-35 araC::mdtEF Pore [8]
320 µg/mL: Minimum inhibitory concentration (MIC), K-12 ([1]; Table 10, without pore) | Minimum Inhibitory Concentration, K-12 ([1]; Table 13A, non-porinated)
0.078 µg/mL: Minimum inhibitory concentration (MIC), EKO-35 ([2]; Table 10, without pore) | Minimum Inhibitory Concentration, EKO-35 ([2]; Table 13A, non-porinated) | Minimum inhibitory concentration [4] | Minimum inhibitory concentration [6] | Minimum inhibitory concentration [7]
8 fold: Fold changes of MICs [5]
0.625 µg/mL: Minimum inhibitory concentration [5]

CO[C@H]1/C=C/O[C@@]2(C)Oc3c(C)c(O)c4c(O)c(c(/C=N/N5CCN(C)CC5)c(O)c4c3C2=O)NC(=O)/C(C)=C\C=C\[C@H](C)[C@H](O)[C@@H](C)[C@@H](O)[C@@H](C)[C@H](OC(C)=O)[C@@H]1C [rifampicin]
0.391 µg/mL: MIC [5] | MIC [6] | MIC [7] | MIC [8]
12.5 µg/mL: MIC [1, 10] | MIC [1, 11]
1 fold: Fold change of MICs [2]
6.25 µg/mL: MIC [2, 12] | MIC [2, 13] | MIC [3] | Minimum inhibitory concentration (MIC), ΔtolC [3]
